Drawing on PMC12112586, “Inhibitory Effect of Fluralaner on GABA Receptor Subunit RDL of Bactrocera dorsalis” (Insects, 2025), this text covers IC50 and EC50 for two compounds.

In assay [1] the target is T1, BdRDL (GABA receptor subunit RDL) (Bactrocera dorsalis, UniProt A0ABM3JZQ9).
T1 construct: gene LOC105225059; full-length ORF, 596 amino acids (GenBank XM_049458762), homomeric receptor expressed in Xenopus oocytes
T1 sequence (A0ABM3JZQ9 1-596): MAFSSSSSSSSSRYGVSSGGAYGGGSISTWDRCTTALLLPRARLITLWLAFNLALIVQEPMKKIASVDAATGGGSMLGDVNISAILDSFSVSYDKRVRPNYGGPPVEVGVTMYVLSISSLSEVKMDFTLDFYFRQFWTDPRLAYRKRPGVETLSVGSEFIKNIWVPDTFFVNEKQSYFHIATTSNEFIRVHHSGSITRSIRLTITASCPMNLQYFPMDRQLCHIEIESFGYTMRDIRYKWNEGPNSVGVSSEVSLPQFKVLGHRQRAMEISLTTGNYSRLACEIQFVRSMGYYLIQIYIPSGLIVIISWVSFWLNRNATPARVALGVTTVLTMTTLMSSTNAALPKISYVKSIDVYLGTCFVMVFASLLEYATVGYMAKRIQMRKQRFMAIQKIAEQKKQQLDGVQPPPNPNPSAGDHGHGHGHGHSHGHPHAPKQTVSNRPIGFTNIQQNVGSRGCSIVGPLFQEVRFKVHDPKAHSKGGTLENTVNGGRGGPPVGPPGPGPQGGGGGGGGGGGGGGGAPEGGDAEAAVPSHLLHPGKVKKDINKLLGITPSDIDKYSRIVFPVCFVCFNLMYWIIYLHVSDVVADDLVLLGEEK
Nature of the assay: two-electrode voltage clamp in Xenopus oocytes, inhibition of GABA (EC50)-induced currents. It counts as cell-based. (Two-electrode voltage clamp holds a large cell at a set potential and records current.)

The target of assay [2] is T1, BdRDL (GABA receptor subunit RDL). Briefly: two-electrode voltage clamp in Xenopus oocytes, agonist-induced currents. It counts as cell-based.

The term IC50 denotes the concentration at which inhibition is half-maximal. A low value points to greater potency in that assay. For the compound `Cc1cc(C2=NOC(c3cc(Cl)cc(Cl)c3)(C(F)(F)F)C2)ccc1C(=O)NCC(=O)NCC(F)(F)F` (racemic) [fluralaner], the midpoint of inhibition in assay [1], the IC50, lay at 0.15 µM.
The EC50 is the concentration needed to bring the measured effect to its halfway point. A low value points to an effect from little substance. In turn, `NCCCC(=O)O` [GABA] returned an EC50 in assay [2] of 240 µM.
